Source: patent US20250289804A1, “SUBSTITUTED INDOLE COMPOUNDS AND METHODS OF USE THEREOF” (NOVARTIS PHARMA AG, priority 2021, published 2025)
Read-outs that look alike come from different tables or passages of the source.

Legend:
human C3bBb = human C3bBb (Homo sapiens (Human), UniProt P00751); test: Human C3bBb enzyme assay (C3a generation from C3, ELISA); type: biochemical; details: read-out: Human C3b:Bb IC50 Avg
How it was run: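 C3bBb was preformed from human C3b, CFB and CFD at 1 μM each (30 min, RT) in PBS pH 7.4 with 100 μM NiCl2 and 0.05% CHAPS. Then 3 nM complex with 1 μM human C3 was incubated with compound for 1 h at RT. C3a was quantified by ELISA against a standard curve, and IC50 came from a 10-point 4-parameter fit.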

[1] = test system: MAC formation in normal human serum; test: Human serum MAC formation assay (zymosan-coated plates, 50% normal human serum); details: 50% normal human serum with EGTA, 37° C. 30 minutes
How it was run: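 Compounds preincubated 15 min at RT with 50% normal human serum in gelatin buffer plus 20 mM EGTA, then complement activated 30 min at 37 °C on zymosan-coated plates. C9 neoepitope ELISA, fluorogenic readout. Percent inhibition vs EDTA-serum baseline and EGTA-serum maximum; IC50 from 4-parameter fit of 10-point curves.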

[2] = 3 nM C3bBb complex, 1 μM human C3, 1 hour room temperature
[3] = starred values: assay conducted with 1 nM C3b:Bb enzyme

Sequence of human C3bBb (P00751 260-764): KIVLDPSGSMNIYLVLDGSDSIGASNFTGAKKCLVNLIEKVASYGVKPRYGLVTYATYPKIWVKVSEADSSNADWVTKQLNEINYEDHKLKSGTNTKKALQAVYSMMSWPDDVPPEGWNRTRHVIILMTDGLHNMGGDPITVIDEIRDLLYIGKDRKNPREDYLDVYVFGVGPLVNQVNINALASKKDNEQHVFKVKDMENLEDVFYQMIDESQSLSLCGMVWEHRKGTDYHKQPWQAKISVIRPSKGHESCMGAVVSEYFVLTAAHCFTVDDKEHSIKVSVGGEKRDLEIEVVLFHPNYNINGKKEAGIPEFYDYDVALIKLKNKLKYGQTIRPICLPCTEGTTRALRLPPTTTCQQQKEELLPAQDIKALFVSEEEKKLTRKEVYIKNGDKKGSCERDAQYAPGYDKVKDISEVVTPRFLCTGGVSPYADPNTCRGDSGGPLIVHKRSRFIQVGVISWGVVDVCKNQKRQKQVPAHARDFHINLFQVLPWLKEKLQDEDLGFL
Sequence of human C3bBb (P01024 23-667 partner): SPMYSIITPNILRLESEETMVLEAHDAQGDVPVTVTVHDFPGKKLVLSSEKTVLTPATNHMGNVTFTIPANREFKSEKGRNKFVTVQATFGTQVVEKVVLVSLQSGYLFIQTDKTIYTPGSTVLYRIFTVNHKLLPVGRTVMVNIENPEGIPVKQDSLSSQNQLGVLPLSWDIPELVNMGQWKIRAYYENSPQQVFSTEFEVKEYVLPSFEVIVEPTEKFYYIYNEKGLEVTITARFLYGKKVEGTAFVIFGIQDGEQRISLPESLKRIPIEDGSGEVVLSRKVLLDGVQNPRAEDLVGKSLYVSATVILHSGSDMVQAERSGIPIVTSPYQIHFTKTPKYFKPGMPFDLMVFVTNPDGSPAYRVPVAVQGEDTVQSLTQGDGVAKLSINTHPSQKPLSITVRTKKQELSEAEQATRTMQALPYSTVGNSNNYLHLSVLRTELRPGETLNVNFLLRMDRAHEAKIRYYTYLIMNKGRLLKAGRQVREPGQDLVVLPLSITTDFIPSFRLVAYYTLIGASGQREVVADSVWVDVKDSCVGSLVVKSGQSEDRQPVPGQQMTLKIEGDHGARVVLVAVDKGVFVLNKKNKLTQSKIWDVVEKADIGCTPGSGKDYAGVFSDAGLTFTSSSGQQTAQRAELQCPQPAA
Sequence of human C3bBb (P01024 749-1663 partner): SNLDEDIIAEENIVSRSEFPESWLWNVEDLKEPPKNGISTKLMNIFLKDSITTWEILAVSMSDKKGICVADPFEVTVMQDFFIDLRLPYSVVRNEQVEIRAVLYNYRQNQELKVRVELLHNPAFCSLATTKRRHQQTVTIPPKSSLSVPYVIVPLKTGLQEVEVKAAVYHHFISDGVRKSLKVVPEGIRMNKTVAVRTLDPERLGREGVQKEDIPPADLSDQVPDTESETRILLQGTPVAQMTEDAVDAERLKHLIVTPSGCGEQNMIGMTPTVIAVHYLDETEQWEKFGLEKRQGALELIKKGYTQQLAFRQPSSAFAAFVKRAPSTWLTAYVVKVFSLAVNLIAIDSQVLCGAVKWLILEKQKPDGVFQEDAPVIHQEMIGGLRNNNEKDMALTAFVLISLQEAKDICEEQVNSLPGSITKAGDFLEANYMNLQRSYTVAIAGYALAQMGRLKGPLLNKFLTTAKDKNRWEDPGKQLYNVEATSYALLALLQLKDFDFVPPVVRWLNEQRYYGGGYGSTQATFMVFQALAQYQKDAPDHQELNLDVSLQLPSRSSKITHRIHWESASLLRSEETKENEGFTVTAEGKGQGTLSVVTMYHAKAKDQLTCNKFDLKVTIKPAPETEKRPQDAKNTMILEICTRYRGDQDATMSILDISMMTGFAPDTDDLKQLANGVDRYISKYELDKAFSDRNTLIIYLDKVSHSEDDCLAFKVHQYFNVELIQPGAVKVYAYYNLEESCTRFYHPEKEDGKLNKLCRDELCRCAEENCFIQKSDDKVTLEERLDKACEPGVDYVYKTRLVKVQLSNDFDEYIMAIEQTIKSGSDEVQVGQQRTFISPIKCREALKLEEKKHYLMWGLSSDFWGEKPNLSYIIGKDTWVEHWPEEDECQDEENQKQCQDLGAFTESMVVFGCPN

IC50 (human C3bBb; [2]) [nM]	IC50 (human C3bBb; [3]) [nM]	Structure (SMILES)	IC50 [1] [nM]
> 100	–	COc1cc(C)c2[nH]ccc2c1CN1CC[C@H](NS(N)(=O)=O)C[C@H]1c1ccc(C(=O)O)cc1 (racemic) [Example 16, (±)-trans-4-(1-((5-methoxy-7-methyl-1H-indol-4-yl)methyl)-4-(sulfamoylamino)piperidin-2-yl)benzoic acid]	300 to 500
–	< 10	COc1cc(C)c2[nH]ccc2c1CN1CC[C@H](N2CC(C#N)C2)C[C@H]1c1ccc(C(=O)O)cc1 [Example 73, 4-((2S,4S)-4-(3-cyanoazetidin-1-yl)-1-((5-methoxy-7-methyl-1H-indol-4-yl)methyl)piperidin-2-yl)benzoic acid]	100 to 200
–	< 10	COc1cc(C)c2[nH]ccc2c1CN1CC[C@]2(C[C@H]1c1ccc(C(=O)O)cc1)C[C@@H](OC(F)F)C2 (single isomer, unassigned) [Example 57, 4-((2R,4s,6S)-2-(difluoromethoxy)-7-((5-methoxy-7-methyl-1H-indol-4-yl)methyl)-7-azaspiro[3.5]nonan-6-yl)benzoic acid or 4-((2S,4r,6S)-2-(difluoromethoxy)-7-((5-methoxy-7-methyl-1H-indol-4-yl)methyl)-7-azaspiro[3.5]nonan-6-yl)benzoic acid]	< 100
–	< 10	COc1cc(C)c2[nH]ccc2c1CN1CC[C@]2(C[C@H]1c1ccc(C(=O)O)cc1)C[C@@H](F)C2 (single isomer, unassigned) [Example 62, 4-((2R,4s,6S)-2-fluoro-7-((5-methoxy-7-methyl-1H-indol-4-yl)methyl)-7-azaspiro[3.5]nonan-6-yl)benzoic acid or 4-((2S,4r,6S)-2-fluoro-7-((5-methoxy-7-methyl-1H-indol-4-yl)methyl)-7-azaspiro[3.5]nonan-6-yl)benzoic acid]	< 100
–	10 to 25	COc1cc(C)c2[nH]ccc2c1CN1CC[C@H](OC2COC2)C[C@H]1c1ccc(C(=O)O)cc1 [Example 82, 4-((2S,4S)-1-((5-methoxy-7-methyl-1H-indol-4-yl)methyl)-4-(oxetan-3-yloxy)piperidin-2-yl)benzoic acid]	200 to 300
50 to 100	–	COc1cc(C)c2[nH]ccc2c1CN1CC[C@H](n2cc(Br)cn2)C[C@H]1c1ccc(C(=O)O)cc1 (racemic) [Example 2, (±)-trans-4-(4-(4-bromo-1H-pyrazol-1-yl)-1-((5-methoxy-7-methyl-1H-indol-4-yl)methyl)piperidin-2-yl)benzoic acid]	300 to 500
–	< 10	COc1cc(C)c2[nH]ccc2c1CN1CC[C@H](NCC(F)(F)F)C[C@H]1c1ccc(C(=O)O)cc1 [Example 15, 4-((2S,4S)-1-((5-methoxy-7-methyl-1H-indol-4-yl)methyl)-4-((2,2,2-trifluoroethyl)amino)piperidin-2-yl)benzoic acid]	< 100
–	< 10	COc1cc(C)c2[nH]ccc2c1CN1CC[C@H](n2cc(C(F)F)cn2)C[C@H]1c1ccc(C(=O)O)cc1 (racemic) [Example 7, (±)-trans-4-(4-(4-(difluoromethyl)-1H-pyrazol-1-yl)-1-((5-methoxy-7-methyl-1H-indol-4-yl)methyl)piperidin-2-yl)benzoic acid]	100 to 200
–	50 to 100	COc1cc(C)c2[nH]ccc2c1CN1CC[C@H](C2CCC2)C[C@H]1c1ccc(C(=O)O)cc1 (mixture of isomers) [Example 43, 4-((2S,4S)-4-cyclobutyl-1-((5-methoxy-7-methyl-1H-indol-4-yl)methyl)piperidin-2-yl)benzoic acid and 4-((2S,4R)-4-cyclobutyl-1-((5-methoxy-7-methyl-1H-indol-4-yl)methyl)piperidin-2-yl)benzoic acid]	> 500
–	< 10	COc1cc(C)c2[nH]ccc2c1CN1CC[C@]2(C[C@H]1c1ccc(C(=O)O)cc1)C[C@@H](C#N)C2 (single isomer, unassigned) [Example 52, 4-((2R,4s,6S)-2-cyano-7-((5-methoxy-7-methyl-1H-indol-4-yl)methyl)-7-azaspiro[3.5]nonan-6-yl)benzoic acid or 4-((2S,4r,6S)-2-cyano-7-((5-methoxy-7-methyl-1H-indol-4-yl)methyl)-7-azaspiro[3.5]nonan-6-yl)benzoic acid]	< 100
–	< 10	COc1cc(C)c2[nH]ccc2c1CN1CC[C@H](CCC(F)(F)F)C[C@H]1c1ccc(C(=O)O)cc1 [Example 42, 4-((2S,4S)-1-((5-methoxy-7-methyl-1H-indol-4-yl)methyl)-4-(3,3,3-trifluoropropyl)piperidin-2-yl)benzoic acid]	200 to 300
–	< 10	COc1cc(C)c2[nH]ccc2c1CN1CC[C@@]2(C[C@H]1c1ccc(C(=O)O)cc1)CC2(F)F (stereo in doubt) [Example 30, 4-((3R,5S)- or ((3S,5S)-1,1-difluoro-6-((5-methoxy-7-methyl-1H-indol-4-yl)methyl)-6-azaspiro[2.5]octan-5-yl)benzoic acid]	100 to 200
> 100	–	COc1cc(C)c2[nH]ccc2c1CN1CC[C@H](n2cccn2)C[C@H]1c1ccc(C(=O)O)cc1 (racemic) [Example 9, (±)-trans-4-(1-((5-methoxy-7-methyl-1H-indol-4-yl)methyl)-4-(1H-pyrazol-1-yl)piperidin-2-yl)benzoic acid]	> 500
–	< 10	Cc1cc(C2CC2)c(CN2CC[C@H](NC3CC(F)(F)C3)C[C@H]2c2ccc(C(=O)O)cc2)c2cc[nH]c12 [Example 25, 4-((2S,4S)-1-((5-cyclopropyl-7-methyl-1H-indol-4-yl)methyl)-4-((3,3-difluorocyclobutyl)amino)piperidin-2-yl)benzoic acid]	< 100
< 10	–	COc1cc(C)c2[nH]ccc2c1CN1CC[C@H](n2cc(C(F)(F)F)cn2)C[C@H]1c1ccc(C(=O)O)cc1 [Example 4, 4-((2S,4S)-1-((5-methoxy-7-methyl-1H-indol-4-yl)methyl)-4-(4-(trifluoromethyl)-1H-pyrazol-1-yl)piperidin-2-yl)benzoic acid]	200 to 300
–	< 10	COc1cc(C)c2[nH]ccc2c1CN1CC[C@H](NCC(F)F)C[C@H]1c1ccc(C(=O)O)cc1 [Example 22, 4-((2S,4S)-4-((2,2-difluoroethyl)amino)-1-((5-methoxy-7-methyl-1H-indol-4-yl)methyl)piperidin-2-yl)benzoic acid]	100 to 200
–	50 to 100	COc1cc(C)c2[nH]ccc2c1CN1CC[C@H](N2CC(S(C)(=O)=O)C2)C[C@H]1c1ccc(C(=O)O)cc1 [Example 79, 4-((2S,4S)-1-((5-methoxy-7-methyl-1H-indol-4-yl)methyl)-4-(3-(methylsulfonyl)azetidin-1-yl)piperidin-2-yl)benzoic acid]	100 to 200
–	10 to 25	COc1cc(C)c2[nH]ccc2c1CN1CC[C@]2(C[C@H]1c1ccc(C(=O)O)cc1)C[C@@H](O)C2 (stereo in doubt) [Example 64, 4-((2R,4s,6S)-4-(2-hydroxy-7-((5-methoxy-7-methyl-1H-indol-4-yl)methyl)-7-azaspiro[3.5]nonan-6-yl)benzoic acid and 4-((2S,4r,6S)-2-hydroxy-7-((5-methoxy-7-methyl-1H-indol-4-yl)methyl)-7-azaspiro[3.5]nonan-6-yl)benzoic acid]	200 to 300
50 to 100	–	COc1cc(C)c2[nH]ccc2c1CN1CC[C@H](c2ccccn2)C[C@H]1c1ccc(C(=O)O)cc1 [Example 38, 4-((2S,4S)-1-((5-methoxy-7-methyl-1H-indol-4-yl)methyl)-4-(pyridin-2-yl)piperidin-2-yl)benzoic acid]	200 to 300
–	< 10	COc1cc(C)c2[nH]ccc2c1CN1CCC2(COC2)CC1c1ccc(C(=O)O)cc1 (racemic) [Example 31, (±)-4-(7-((5-methoxy-7-methyl-1H-indol-4-yl)methyl)-2-oxa-7-azaspiro[3.5]nonan-6-yl)benzoic acid]	> 500
> 100	–	COc1cc(C)c2[nH]ccc2c1CN1CC[C@H](c2ccccc2)C[C@H]1c1ccc(C(=O)O)cc1 (racemic) [Example 37, (±)-trans-4-(1-((5-methoxy-7-methyl-1H-indol-4-yl)methyl)-4-phenylpiperidin-2-yl)benzoic acid]	> 500
10 to 25	–	COc1cc(C)c2[nH]ccc2c1CN1CC[C@H](NC2COC2)C[C@H]1c1ccc(C(=O)O)cc1 (racemic) [Example 17, (+)-trans-4-(1-((5-methoxy-7-methyl-1H-indol-4-yl)methyl)-4-(oxetan-3-ylamino)piperidin-2-yl)benzoic acid]	100 to 200
–	< 10	COc1cc(C)c2[nH]ccc2c1CN1CC[C@]2(C[C@H]1c1ccc(C(=O)O)cc1)C[C@@H](C#N)C2 (single isomer, unassigned) [Example 55, 4-((2R,4s,6S)-2-cyano-7-((5-methoxy-7-methyl-1H-indol-4-yl)methyl)-7-azaspiro[3.5]nonan-6-yl)benzoic acid or 4-((2S,4r,6S)-2-cyano-7-((5-methoxy-7-methyl-1H-indol-4-yl)methyl)-7-azaspiro[3.5]nonan-6-yl)benzoic acid]	< 100

Structure (SMILES)	IC50 (human C3bBb; [2]) [nM]	IC50 (human C3bBb; [3]) [nM]	IC50 [1] [nM]
COc1cc(C)c2[nH]ccc2c1CN1CC[C@H](N2CCCC2=O)C[C@H]1c1ccc(C(=O)O)cc1 [Example 13, 4-((2S,4S)-1-((5-methoxy-7-methyl-1H-indol-4-yl)methyl)-4-(2-oxopyrrolidin-1-yl)piperidin-2-yl)benzoic acid]	–	50 to 100	100 to 200
